One series relates to hydroxyl radical (OH). The series can be described thus: Determination of OH concentration in LPS-stimulated Raw 264.7 cells (OH kit). Format: cell-based, mouse. The settings on record: 4.13-12.38 μg/ml, LPS 30 μg/ml 24 h, dose-dependent. The method, then: (§1) Mouse IL-1-beta ELISA kit, batch number: 2014/06 (96T), Mouse IL-6 ELISA kit, batch number: 2014/06 (96T), Mouse tumor necrosis factor-alpha (TNF-α) ELISA kit, batch number: 2014/06 (96T), Mouse NO ELISA Kit Batch number: 2014/10 (96T), mouse hydroxyl radical (OH) ELISA detection kit, batch number: 2014/10 (96T).
(§2) Raw 264.7 cells were inoculated on a 96-well plate for 24 hours, then synchronized for 24 hours. The cells were treated with different concentration of medicine for 2 hours, and then stimulated with LPS (30 μg/ml) for 24 hours. Lastly, supernatant was collected and centrifuged for 5 minutes at 10,000 rpm. The supernatant was separated and stored at −80° C. for reserve. The concentration of NO was determined by mouse NO kit.
Sample prepared at 1.5 was used for OH factor determination. The concentration was determined by OH kit.

A further series has as its system Raw 264.7 cells. Put plainly: Determination of cell vitality by MTT method. Format: cell-based, mouse. The settings on record: 1.37 to 12.37 μg/ml, 2 h medicine, then LPS 30 μg/ml 24 h, FIG. 1. On the procedure: (§3) Medicine was first dissolved in a small amount of DMSO, and then diluted to a certain concentration with DMEM, so that final concentration of DMSO was less than 1%.
(§4) Raw 264.7 mouse macrophages were incubated in DMEM medium containing 10% heat-inactivated fetal bovine serum (FBS), 10 U/mL penicillin sodium and 100 μg/ml streptomycin, and incubated in 37° C., 5% CO2 incubator.
Cell vitality was determined by MTT method. Cell suspension liquid was inoculated into a 96-well plate (1*104 holes/pore) to incubate for 24 hours and then synchronize for 24 hours. The cells were treated with different concentration of medicine for 2 hours, and then stimulated by LPS (30 μg/ml) for 24 hours. Original medium was abandoned, and MTT (0.5 mg/ml) was added into each hole for 4 hours. The medium was then abandoned and DMSO ([…]) was added into each hole. Absorbance was measured at 490 nm after shaking for 10 min.

A further series has as its system IL-1β. Put plainly: Measurement of inflammatory factor IL-1β in LPS-stimulated Raw 264.7 cells (ELISA kit). The series is classed as cell-based, mouse. The settings on record: at various concentrations; LPS 30 μg/ml 24 h; p>0.05; FIG. 4. On the procedure: as §1, §2
(§5) Sample prepared in at 1.5 was used for subsequent inflammatory factor determination. The amount of TNF-α, IL-1β, IL-6 produced by cells was measured by mouse TNF-α, IL-1β, and IL-6 kit.

The test system of a further series is NO. Put plainly: Determination of NO concentration in LPS-stimulated Raw 264.7 cells (mouse NO kit). The series is classed as cell-based. The settings on record: 6.88±12.38 μg/ml (6.88 to 12.38 μg/mL), LPS 30 μg/ml 24 h, dose-dependent. The method, then:
as §3, §4, §2

The subject of a further series is IL-6. Put plainly: Measurement of inflammatory factor IL-6 in LPS-stimulated Raw 264.7 cells (ELISA kit). The series is classed as cell-based, mouse. The settings on record: at various concentrations; LPS 30 μg/ml 24 h; p>0.05; FIG. 5. On the procedure:
as §1, §2, §5

In the next series the test system is TNF-α. Put plainly: Measurement of inflammatory factor TNF-α in LPS-stimulated Raw 264.7 cells (ELISA kit). Format: cell-based, mouse. The settings on record: 6.88±12.38 μg/ml (6.88 to 12.38 μg/mL), LPS 30 μg/ml 24 h, p<0.05, dose-dependent, FIG. 3. The method, then:
as §1, §2, §5

The source of these data is patent US10329316B2, “Phenylpropanoid compound and preparation method and use thereof” (QIANJIN PHARMACEUTICAL CO., LTD., priority 2016, dated 2019).

Molecules are shown by their SMILES. Entries after “also recorded” stand apart in the source; their conditions may differ.

In the case of `O=C(CCO)Oc1cc(O)c(OC2OC(CO)C(O)C(O)C2O)c(O)c1` (stereo not drawn) [MM-125], the “inhibition of the increase of OH concentration induced by LPS” value in the series on hydroxyl radical (OH) (FIG. 6) is listed as “significantly inhibit; also recorded: significant inhibitory effects”; in the series with hydroxyl radical (OH) (FIG. 6, listed as phenylpropanoid compound), “significant effect on inhibiting”. Moreover, the “effect on vitality of Raw 264.7 cells” value in the series with Raw 264.7 cells is “no significant effect”. Also, in the series on IL-1β, the “inhibition of production of IL-1β in Raw 264.7 cells” value is “could not inhibit; also recorded: no obvious inhibitory effect”. Further, the “inhibition of the increase of NO concentration induced by LPS” value was “significantly inhibit; also recorded: significant inhibitory effects” in the series on NO (FIG. 2) and “significant effect on inhibiting” with NO (FIG. 2, listed as phenylpropanoid compound). Moreover, the “inhibition of production of IL-6 in Raw 264.7 cells” value in the series with IL-6 is “could not inhibit; also recorded: no obvious inhibitory effect”. In addition, the entries for the “inhibition of production of TNF-α in Raw 264.7 cells” value in the series on TNF-α and in the series with TNF-α (listed as phenylpropanoid compound) were “significantly inhibit; also recorded: certain level of inhibiting effects” and “significantly inhibit”, respectively.
